Reference: patent US4039574A, “13-Hydroxy-15-deoxy-prostaglandins” (American Cyanamid Company, priority 1975, dated 1977)

Tested on: basal gastric acid secretion
Experiment: Inhibition of Gastric Acid Secretion in the Acute Gastric Fistula Rat (basal gastric acid secretion)
Format: in vivo, Female Sprague-Dawley rats
Conditions: 10 mg./kg., vs concurrent vehicle control

Compound	% inhibition of total acid output after 60 minutes (intraduodenal route)	% inhibition of total acid output after 120 minutes (intraduodenal route)	% inhibition of total acid output after 60 minutes (oral route of administration)	% inhibition of total acid output after 120 minutes (oral route of administration)
CCCCCCCC(O)[C@@H]1CCC(=O)[C@H]1CCCCCCC(=O)O (relative stereo) [trans-2-(6-carboxyhexyl)-3-(1-hydroxyoctyl)cyclopentanone]	29%	78%	–	–
CCCCCCCC(O)C1C(O)CC(=O)C1CC=CCCCC(=O)O (stereo not drawn) [2α-(6-carboxyhex-2-cis-enyl)-3β-(1-hydroxyoctyl)-4-hydroxycy] [2α-(6-carboxyhex-2-cis-enyl)-3β-(1-hydroxyoctyl)-4-hydroxycyclopentanone]	81%	20%	–	–
CCCCCCCC(O)C1C(O)CC(=O)C1CC=CCCCC(=O)O (stereo not drawn) [2β-(6-carboxyhex-2-cis-enyl)-3β-(1-hydroxyoctyl)-4-hydroxycy] [2β-(6-carboxyhex-2-cis-enyl)-3β-(1-hydroxyoctyl)-4-hydroxycyclopentanone]	100%	94%	1%	56%
